Results: patent publication US8030042B2, “Polyamino acid synthetase and gene encoding the same” (JNC Corporation, priority 2007, dated 2011)
Converted amounts (≈) assume the structure as drawn.

Tested on: ε-poly-L-lysine biosynthetic enzyme
Experiment: ε-poly-L-lysine biosynthesis activity (L-[U-14C]lysine taken into ε-poly-L-lysine)
Type: biochemical, Streptomyces albulus strain IFO14147
Conditions: 5 mM Mg^2+, 5 mM Mn^2+; no concentration given for Ca^2+
Description: The measurement of the ε-poly-L-lysine biosynthesis activity was performed according to the method of Kawai et al. (Biochem Biophys Res Commun. 2003 Nov. 21; 311 (3): 635-40) with some modification. A reaction solution (40 μl), which includes: 1 mM L-lysine containing 92.5 kBq/ml L-[U-14C]lysine (Amersham Biosciences); 5 mM MgCl2; 5 mM ATP; 1 mM DTT; 20% (w/v) glycerol; 0.2% (w/v) NP-40; 100 mM TAPS-NaOH buffer solution (pH 8.5); and the enzyme, was incubated at 30° C. 10 μl of the reaction solution was spotted on a glass fiber filter paper having the diameter of 2.1 cm (Whatman), and it was immediately immersed in an ice-cold sodium solution of 5% (w/v) trichloroacetic acid-0.25% (w/v) tungstic acid. It was allowed to stand for 20 minutes and thereafter mildly shaken for 5 minutes. After the filter was shaken again in the same solution for 5 minutes, it was rinsed with ethanol and then dried. The amount of radioactivity bound to the filter was measured using a liquid scintillation counter (Aloka). The amount of enzyme by which 1 pmol/second of L-lysine is taken into ε-poly-L-lysine under the above-described reaction conditions was defined as 1 unit. Specific activity of a protein is represented by unit per 1 mg of the protein. Quantitation of protein was performed using the Bradford method. A calibration curve was made using bovine serum albumin (Wako Pure Chemical Industries, Ltd.).

| Molecule | Metal ion requirement: enzyme activity on addition of divalent cation |
| --- | --- |
| [Ca+2] [Ca^2+] | activated slightly |
| [Mg+2] [Mg^2+] | maximal activity |
| [Mn+2] [Mn^2+] | maximal activity |

Same assay, conditions: purified enzyme preparation

| Molecule | Optimum pH of synthesis reaction |
| --- | --- |
| ε-poly-L-lysine biosynthetic enzyme: membrane-bound ε-poly-L-lysine biosynthetic enzyme (NRPS) from Streptomyces albulus strain IFO14147, amino acid sequence SEQ ID NO: 2 (protein, listed as Streptomyces albulus) MSSPLLESSFEPSEPAPQQALYRTAGNPAPRTLLDVLDATAAAHPQAIALDTGSEALTYRDLCIEIERRARQLRDRGIGPGDRVGVRVPSGTAELYLSILAVLRSGAAYVPVDADDPDERAATVFREAAVCAVLGPDGPLPGPARPLGDPRSAGPQDDAWIIFTSGSTGAPKGVAVSHRSAAAFVDAEADLFCQDQPLGPGDRVLAGLSVAFDASCEEMWLAWRYGACLVPAPRALVRAGHELGPWLVERGITVVSTVPTLAALWPDEAMRRVRLLIVGGESCPAGLVDRFAGPGREMWNTYGPTETTVVACAARLLPGEPVRIGLPLKGWQLAVVDRTGQPVPFGAEGELLISGVGTARYLDPAKDAERFRPDDALGAARVYRTGDLVRAEPEGLLFVGRADDQIKLGGRRIELGEIDAALAALPGVRGAAAAVQTTPAGTQVLVGYVVPEQRTADGSSFQQDKARALLQERLPAQLVPVLAEVESLPTRTSGKVDRKALPWPLPSAPVDSATGDPATALDGTAARLAGIWEELLGVRPGPDSDFVSLGGTSLVAARMASQLRIHHPGVSVADLYRHPVLRDMAEHLDSLGGPVDEVRPVRPVPRRTGFVQLLVQTGLYGIAGLRGLVGLALADNVLGLLAPQVWAPHTAWWLIIVGWVVLYSAPMRCALGALAARALAGTIKPGAYPRGGATHLRLWTAERVVAAFGVPSLLGTPWTRLYARSLGCATGRNVALHTMPPVTGLAELGDGCSVEPEADISGWWLDGDTLHIGAVRIGAGARVAHRSMLMPGAVVGQGAELASGACLDGEIPDGASWSGSPARPAGAAERMAGAAWPAPAWQRSRRWSAAYGLTLLGLSLLALLSTAPALVGAYFLLRDSGTLATAGLRLLLAVPVFTLLTTGCSLLVTAAVVRLLGRGITPGLHPASGGVAWRAWLVTRLLDGARGSLFPLYASLGTPHWLRLLGAKVGRHAEISTVLPLPSLLHVEDGAFLADDTLVAPFELRGGWLRLGTVRIGRRAFVGNSGIVDPGHDVPDHSLVGVLSNAPADGEPGSSWLGRPAMPLPRVATQADPARTFAPPRRLVRARAAVELCRVLPLMCGLALAEGVFLTEQDAFAQGGLGLAALVGAPLLLASGLVALLVTTLAKWLLVGRFTVSEHPLWSSFVWRNELYDTFVESLAVPSMAGAFTGTPVLNWWLRTLGAKIGRGVWLESYWLPETDLITVADGVSVNRGCVLQTHLFHDRIMRLDTVRLAEGSSLGPHGIVLPGTEVGARASIAPSSLVMRGESVPAHTRWAGNPIAGERPARPVPARAEGGAAA | 8.5 |

Tested on: ε-poly-L-lysine biosynthetic enzyme
Experiment: adenylation activity of L-lysine and other amino acids by ATP-PPi exchange reaction
Type: biochemical, Streptomyces albulus strain IFO14147
Conditions: nucleotide in place of ATP

| Molecule | Nucleotide specificity: activation of substrate amino acids |
| --- | --- |
| Nc1nc2c(ncn2[C@@H]2O[C@H](COP(=O)(O)OP(=O)(O)OP(=O)(O)O)[C@@H](O)[C@H]2O)c(=O)[nH]1 [GTP] | not activated |
| Nc1ncnc2c1ncn2[C@@H]1O[C@H](COP(=O)(O)OP(=O)(O)OP(=O)(O)O)[C@@H](O)[C@H]1O [ATP] | ATP-specific |
| O=c1ccn([C@@H]2O[C@H](COP(=O)(O)OP(=O)(O)OP(=O)(O)O)[C@@H](O)[C@H]2O)c(=O)[nH]1 [UTP] | not activated |
| Nc1ccn([C@@H]2O[C@H](COP(=O)(O)OP(=O)(O)OP(=O)(O)O)[C@@H](O)[C@H]2O)c(=O)n1 [CTP] | not activated |

Tested on: ε-poly-L-lysine biosynthetic enzyme
Experiment: Enzymatic production of heteropolyamino acid from lysine analog and L-lysine (ESI-LC-MS)
Type: biochemical, Streptomyces albulus strain IFO14147
Conditions: 2 mM substrate, L-lysine and analog mixed; 25° C., 4 hours; FIG. 9
Description: A reaction solution (200 μl) containing 2 mM substrate amino acid (L-lysine and analog were mixed in a given ratio), 5 mM MgCl2, 5 mM ATP, 1 mM DTT, 20% glycerol, 0.2% (w/v) NP-40, 100 mM TAPS-NaOH buffer solution (pH 8.5) and about 10 μg of the purified enzyme preparation was put into a 1.5 ml microtube, and it was incubated at 25° C. 4 hours later, polyamino acid produced in a manner similar to that in Example 1 was subjected to ESI-LC-MS analysis.

| Molecule | Analog taken into the polylysine molecule by the enzyme (heteropolyamino acid) |
| --- | --- |
| NCC(O)CCC(N)C(=O)O (racemic) [DL-5-hydroxylysine] | taken into the polylysine molecule |
| NCCSC[C@H](N)C(=O)O [S-(2-aminoethyl)-L-cysteine] | taken into the polylysine molecule |
| NCCOC[C@H](N)C(=O)O [O-(2-aminoethyl)-L-serine] | taken into the polylysine molecule |

Tested on: Streptomyces albulus
Experiment: minimum growth inhibitory concentration against the bacterium in a M9 minimum medium
Type: cell-based
Conditions: i.e. minimum concentration to inhibit aspartokinase

| Molecule | MIC |
| --- | --- |
| C[C@@H](O)[C@H](N)C(=O)O [L-Thr, L-threonine] | 16 mM (≈ 1910 µg/mL) |
| NCCSC[C@H](N)C(=O)O [S-(2-aminoethyl)-L-cysteine] | 8 mM (≈ 1310 µg/mL) |

Tested on: Streptomyces albulus
Experiment: Microbial production of heteropolyamino acid by viable bacterium (LC-MS)
Type: cell-based
Conditions: 8 mM analog, 16 mM L-threonine, L-lysine; pH 4.2, 30° C., 48 hours; FIG. 10
Description: A bacterium of Streptomyces albulus, which was obtained by culturing in a M3G medium (Example 1) at 30° C. for 36 hours, was washed with 100 mM citrate buffer solution (pH 4.2) twice. The washed bacterium obtained from 100 ml of culture solution was suspended in a reaction solution for bacterium consisting of 50 ml of 5% glucose, 1% ammonium sulfate, 8 mM S-(2-aminoethyl)-L-cysteine, 16 mM L-threonine (the concentration of each of the amino acids corresponds to a minimum growth inhibitory concentration against the bacterium in a M9 minimum medium, i.e., a minimum concentration to inhibit aspartokinase which is the key enzyme for L-lysine biosynthesis), and 100 mM citrate buffer solution (pH 4.2) containing a given amount of L-lysine, and it was subjected to shaking culture at 30° C. for 48 hours. After the completion of culture, polyamino acid contained in the culture supernatant collected by centrifugation was subjected to LC-MS analysis using the method of Example 1 (paragraph [0091]).

| Molecule | Analog taken into the polylysine molecule by viable bacterium (heteropolyamino acid) |
| --- | --- |
| NCCSC[C@H](N)C(=O)O [S-(2-aminoethyl)-L-cysteine] | taken into the polylysine molecule |

Tested on: ε-poly-L-lysine biosynthetic enzyme
Experiment: adenylation activity of L-lysine and other amino acids by ATP-PPi exchange reaction
Type: biochemical, Streptomyces albulus strain IFO14147
Conditions: 1 mM amino acid; "None" = was not adenylated
Description: The adenylation activity of L-lysine and other amino acids was measured by ATP-PPi exchange reaction. A reaction solution (40 μl), which includes: 1 mM L-lysine or another amino acid; 5 mM MgCl2; 5 mM. ATP; 1 mM DTT; 20% (w/v) glycerol; 0.2% (w/v) NP-40; 0.2 mM sodium diphosphate; 51.8 kBq/ml [32P] sodium diphosphate; 100 mM TAPS-NaOH buffer solution (pH 8.5); and the enzyme, was incubated at 30° C. 1.0 ml of a solution containing 1.2% (w/v) active carbon, 0.1 M sodium diphosphate and 0.35 M perchloric acid was added thereto to terminate the reaction. After the active carbon was washed with pure water, the amount of radioactivity bound to the active carbon was measured using a liquid scintillation counter (Aloka).

| Molecule | Substrate specificity: adenylated by the enzyme or not |
| --- | --- |
| NC(=O)CC[C@H](N)C(=O)O [L-Gln] | None |
| N[C@@H](CC(=O)O)C(=O)O [L-Asp] | None |
| N[C@@H](Cc1c[nH]c2ccccc12)C(=O)O [L-Trp] | None |
| N=C(N)NCCC[C@H](N)C(=O)O [L-Arg] | None |
| NCC(O)CCC(N)C(=O)O (racemic) [DL-5-hydroxylysine] | adenylated |
| C[C@@H](O)[C@H](N)C(=O)O [L-Thr, L-threonine] | None |
| CC(C)[C@H](N)C(=O)O [L-Val] | None |
| N[C@@H](CO)C(=O)O [L-Ser] | None |
| NC(=O)C[C@H](N)C(=O)O [L-Asn] | None |
| CSCC[C@H](N)C(=O)O [L-Met] | None |
| NCCCC[C@@H](N)C(=O)O [D-lysine] | adenylated |
| N[C@@H](CS)C(=O)O [L-Cys] | None |
| N[C@@H](Cc1c[nH]cn1)C(=O)O [L-His] | None |
| N[C@@H](CCC(=O)O)C(=O)O [L-Glu] | None |
| NCC(=O)O [Gly] | None |
| N[C@@H](Cc1ccc(O)cc1)C(=O)O [L-Tyr] | None |
| CC[C@H](C)[C@H](N)C(=O)O [L-Ile] | None |
| CC(C)C[C@H](N)C(=O)O [L-Leu] | None |
| N[C@@H](Cc1ccccc1)C(=O)O [L-Phe] | None |
| O=C(O)[C@@H]1CCCN1 [L-Pro] | None |
| NCCSC[C@H](N)C(=O)O [S-(2-aminoethyl)-L-cysteine] | adenylated |
| C[C@H](N)C(=O)O [L-Ala] | None |
| NCCOC[C@H](N)C(=O)O [O-(2-aminoethyl)-L-serine] | adenylated |

Same assay, conditions: activity to L-lysine regarded as 100%; FIG. 8

| Molecule | Relative activity in amino acid activation (adenylation) reaction |
| --- | --- |
| NCCCC[C@H](N)C(=O)O [L-lysine] | 100% |
